Measurements: patent US8952005B2, “Substituted 1,3-benzothiazol-2(3H)-ones and [1,3]thiazolo[5,4-B]pyridin-2(1H)-ones as positive allosteric modulators of mGluR2” (Merck Sharp & Dohme Corp., priority 2010, dated 2015)

target: T1, recombinant human mGluR2 (Homo sapiens, UniProt Q14416); test: FLIPR Ca2+ mobilization assay, potentiation of glutamate response at mGluR2; assay type: cell-based; conditions: potentiation after addition of EC20 concentration of glutamate (900 nM); CHO dhfr- cells expressing human mGluR2 and Gα16
T1 construct: expressed in transfected cells
T1 sequence (Q14416 19-872): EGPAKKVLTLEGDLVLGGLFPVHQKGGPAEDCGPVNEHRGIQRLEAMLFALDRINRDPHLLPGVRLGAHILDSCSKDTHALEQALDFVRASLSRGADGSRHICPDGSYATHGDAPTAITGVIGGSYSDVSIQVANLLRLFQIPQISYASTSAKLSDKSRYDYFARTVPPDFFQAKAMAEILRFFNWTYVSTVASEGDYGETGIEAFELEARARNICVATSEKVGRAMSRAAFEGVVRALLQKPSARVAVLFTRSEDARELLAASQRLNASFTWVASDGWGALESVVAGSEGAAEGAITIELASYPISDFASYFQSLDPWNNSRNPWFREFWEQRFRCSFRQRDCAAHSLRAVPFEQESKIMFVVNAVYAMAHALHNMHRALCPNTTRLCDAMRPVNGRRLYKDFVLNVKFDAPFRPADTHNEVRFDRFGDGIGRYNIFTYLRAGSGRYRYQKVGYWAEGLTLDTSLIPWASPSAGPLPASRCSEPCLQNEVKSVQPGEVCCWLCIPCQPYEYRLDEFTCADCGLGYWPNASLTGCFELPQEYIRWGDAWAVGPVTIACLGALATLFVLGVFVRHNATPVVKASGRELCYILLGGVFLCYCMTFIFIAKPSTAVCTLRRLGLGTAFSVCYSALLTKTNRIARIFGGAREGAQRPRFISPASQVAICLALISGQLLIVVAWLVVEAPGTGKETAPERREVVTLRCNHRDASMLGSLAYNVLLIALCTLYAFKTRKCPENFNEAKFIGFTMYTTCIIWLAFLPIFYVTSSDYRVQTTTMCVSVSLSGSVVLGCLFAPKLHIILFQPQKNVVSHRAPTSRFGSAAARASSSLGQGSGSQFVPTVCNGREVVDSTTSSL
Procedure: Inhibition constants are determined as follows. The compounds of the present invention may be tested in a fluorescence laser imaging plate reader (FLIPR) based assay. This assay is a common functional assay to monitor Ca^2+ mobilization in whole cells expressing recombinant receptor coupled with a promiscuous G-protein. CHO dhfr− cells stably expressing recombinant human mGluR2 and Gα16 loaded with Fluo-4 AM (Invitrogen, Carlsbad Calif.) are treated with dose responses of compounds and the Ca^2+ response is monitored on a FLIPR384 (Molecular Devices, Sunnydale Calif.) for agonist activity. The potentiation response is monitored after a subsequent addition of an EC20 concentration of glutamate (900 nM). The maximum calcium response at each concentration of compound for agonist or potentiation are plotted as dose responses and the curves are fitted with a four parameters logistic equation giving EC50 and Hill coefficient using the iterative non linear curve fitting software program.

Structure (SMILES)	EC50 [nM]
O=c1sc2cc(-c3cccc(N4CCS(=O)(=O)CC4)c3)ccc2n1CC1CC1 [Example 6-16, 3-(cyclopropylmethyl)-6-[3-(1,1-dioxidothiomorpholin-4-yl)phenyl]-1,3-benzothiazol-2(3H)-one]	65
N#Cc1cc(Oc2ccc(C#N)c(-c3ccc4c(n3)sc(=O)n4CC3CC3(F)F)c2)ccn1 (stereo not shown) [Example 16-3, 4-(4-cyano-3-{1-[(2,2-difluorocyclopropyl)methyl]-2-oxo-1,2-dihydro[1,3]thiazolo[5,4-b]pyridin-5-yl}phenoxy)pyridine-2-carbonitrile]	15
Cc1ccc(C(C)(C)O)cc1-c1ccc2c(n1)sc(=O)n2CC1CC1(F)F (stereo not shown) [Example 2-3, 1-{[2,2-difluorocyclopropyl]methyl}-5-[5-(1-hydroxy-1-methylethyl)-2-methylphenyl][1,3]thiazolo[5,4-b]pyridin-2(1H)-one]	153
CC(C)(C)Cn1c(=O)sc2nc(-c3ccccc3C#N)ccc21 [Example 3-2, 2-[1-(2,2-dimethylpropyl)-2-oxo-1,2-dihydro[1,3]thiazolo[5,4-b]pyridin-5-yl]benzonitrile]	34

Continued by falling EC50, values first:

EC50 [nM]	Structure (SMILES)
306	N#Cc1cccnc1Oc1ccc2c(c1)sc(=O)n2CC1CC1(F)F (stereo not shown) [Example 18-3, 2-({3-[(2,2-difluorocyclopropyl)methyl]-2-oxo-2,3-dihydro-1,3-benzothiazol-6-yl}oxy)nicotinonitrile]
248	N#Cc1ccccc1-c1ccc2c(c1)sc(=O)n2Cc1ccc(Cl)cc1F [Example 9-15, 2-[3-(4-chloro-2-fluorobenzyl)-2-oxo-2,3-dihydro-1,3-benzothiazol-6-yl]benzonitrile]
17	N#Cc1ccccc1-c1ccc2c(c1)sc(=O)n2CC1CC1(F)F (stereo not shown) [Example 5-2, 2-(3-{[2,2-difluorocyclopropyl]methyl}-2-oxo-2,3-dihydro-1,3-benzothiazol-6-yl)benzonitrile]
